These results are taken from ChEMBL document CHEMBL1124964, “Synthesis, structure, and antiparasitic activity of sulfamoyl derivatives of ribavirin” (1990).

≈ marks a conversion by molar mass, not a printed value. Where “and” joins values, the source holds several entries; their conditions need not be identical. Identical values can stand only once.

Assay type in all cases: functional
Assay [1] deals with Mus musculus. Nature of the assay: In vivo antiparasitic activity against Trypanosoma brucei was tested at […]. Percent of mice cured after oral administration.
The subject of assay [2] is Mus musculus. Nature of the assay: In vivo antiparasitic activity against Trypanosoma brucei was tested at 25 mg/kg. Average survival time of the mice was determined.
Assay [3] concerns Mus musculus. Nature of the assay: In vivo antiparasitic activity against Trypanosoma brucei was tested at […]. Range of survival of mice.
In assay [4] the test system is Leishmania donovani. The assay can be described thus: In vitro antiparasitic activity against Leishmania donovani was determined. Conditions: read-out: ED50 (the source's name).
The next assay deals with Giardia intestinalis. The assay can be described thus: In vitro antiparasitic activity against Giardia lamblia was determined. Conditions: Giardia duodenalis; read-out: ED50 (the source's name).
Assay [5] deals with Trypanosoma brucei gambiense. The assay can be described thus: In vitro antiparasitic activity against Trypanosoma gambiense was determined. The conditions noted are these: read-out: ED50 (the source's name).
The next assay relates to Trichomonas vaginalis. The assay can be described thus: In vitro antiparasitic activity against […] was determined. Conditions: read-out: ED50 (the source's name).
Another assay concerns Trypanosoma cruzi. Nature of the assay: In vitro antiparasitic activity against Trypanosoma cruzi was determined. The conditions noted are these: read-out: ED50 (the source's name).
In assay [6] the test system is Trypanosoma brucei. The assay can be described thus: In vivo antiparasitic activity against Trypanosoma brucei was tested at 1 mg/kg Percent of mice cured after oral administration.
Assay [7] relates to Trypanosoma brucei. Nature of the assay: In vivo antiparasitic activity against Trypanosoma brucei was tested. Range of survival of mice.
For assay [8], the species on record is Mus musculus. The assay can be described thus: LDUs (Leishmania Donovan Units) in liver The liver parasite burden expressed as Leishmania Donovanii units at.
For assay [9], the system named is Trypanosoma brucei. The assay can be described thus: In vivo antiparasitic activity against Trypanosoma brucei was tested. Percent of mice cured after administering the compound.
Assay [10] concerns Leishmania donovani. The assay can be described thus: % Suppression = 100 - 100(LDUs of experimental / LDUs of control) at.
Assay [11] relates to Trypanosoma brucei. Nature of the assay: In vivo antiparasitic activity against Trypanosoma brucei was tested at 10 mg/kg. Range of survival of mice; 4-11.
The test system of assay [12] is Trypanosoma brucei. Nature of the assay: In vivo antiparasitic activity against Trypanosoma brucei was tested at 1 mg/kg. Range of survival of mice; 4-5.
In assay [13] the test system is Trypanosoma brucei. The assay can be described thus: In vivo antiparasitic activity against Trypanosoma brucei was tested at 10 mg/kg. Percent of mice cured after administering the compound.
Assay [14] deals with Leishmania donovani. Nature of the assay: % Suppression = 100 - 100(LDUs of experimental / LDUs of control).
In assay [15] the test system is Trypanosoma brucei. The assay can be described thus: In vivo antiparasitic activity against Trypanosoma brucei was tested at 5 mg/kg. Percent of mice cured after administering the compound.
Assay [16] concerns Trypanosoma brucei. The assay can be described thus: In vivo antiparasitic activity against Trypanosoma brucei was tested at 50 mg/kg (p.o.). Average survival time of the mice taken in this experiment. Conditions: route oral.
In assay [17] the test system is Trypanosoma brucei. The assay can be described thus: In vivo antiparasitic activity against Trypanosoma brucei was tested at 50 mg/kg. Percent of mice cured after administering the compound.
The test system of assay [18] is Trypanosoma brucei. The assay can be described thus: In vivo antiparasitic activity against Trypanosoma brucei was tested at 50 mg/kg (i.v.). Range of survival of mice; 4-12. Conditions: route intravenous.
The test system of assay [19] is Trypanosoma brucei. The assay can be described thus: In vivo antiparasitic activity against Trypanosoma brucei was tested at 20 mg/kg. Percent of mice cured after administering the compound.
Assay [20] deals with Trypanosoma brucei. The assay can be described thus: In vivo antiparasitic activity against Trypanosoma brucei was tested at 5 mg/kg. Range of survival of mice; 4-6.
Assay [21] has as its system Trypanosoma brucei. Nature of the assay: In vivo antiparasitic activity against Trypanosoma brucei was tested at 20 mg/kg. Average survival time of the mice taken in this experiment.
Assay [22] concerns Trypanosoma brucei. Nature of the assay: In vivo antiparasitic activity against Trypanosoma brucei was tested at 5 mg/kg. Average survival time of the mice taken in this experiment.
For assay [23], the system named is Trypanosoma brucei. Nature of the assay: In vivo antiparasitic activity against Trypanosoma brucei was tested at 50 mg/kg (i.v.).. Percent of mice cured after administering the compound. Conditions: route intravenous.
Assay [24] deals with Trypanosoma brucei. The assay can be described thus: In vivo antiparasitic activity against Trypanosoma brucei was tested at 50 mg/kg (p.o.). Range of survival of mice; 10-14. The conditions noted are these: route oral.
The test system of assay [25] is Trypanosoma brucei. The assay can be described thus: In vivo antiparasitic activity against Trypanosoma brucei was tested. Average survival time of the mice taken in this experiment.
In assay [26] the test system is Trypanosoma brucei. Nature of the assay: In vivo antiparasitic activity against Trypanosoma brucei was tested at 20 mg/kg. Range of survival of mice; 4-11.
Assay [27] relates to Trypanosoma brucei. Nature of the assay: In vivo antiparasitic activity against Trypanosoma brucei was tested at 1 mg/kg. Average survival time of the mice was determined.
Assay [28] has as its system Trypanosoma brucei. The assay can be described thus: In vivo antiparasitic activity against Trypanosoma brucei was tested at 10 mg/kg. Average survival time of the mice taken in this experiment.
In assay [29] the test system is Trypanosoma brucei. Nature of the assay: In vivo antiparasitic activity against Trypanosoma brucei was tested at 50 mg/kg. Average survival time of the mice taken in this experiment.
Assay [30] has as its system Trypanosoma brucei. Nature of the assay: In vivo antiparasitic activity against Trypanosoma brucei was tested at 50 mg/kg (i.v.). Average survival time of the mice taken in this experiment. Conditions: route intravenous.
For assay [31], the species on record is Mus musculus. Nature of the assay: LDUs (Leishmania Donovan Units) in liver The liver parasite burden expressed as Leishmania Donovanii units.
For assay [32], the system named is Trypanosoma brucei. Nature of the assay: In vivo antiparasitic activity against Trypanosoma brucei was tested at 50 mg/kg (p.o.). Percent of mice cured after administering the compound. The conditions noted are these: route oral.
The subject of assay [33] is Trypanosoma brucei. The assay can be described thus: In vivo antiparasitic activity against Trypanosoma brucei was tested at 50 mg/kg. Range of survival of mice; 10-4.
In assay [34] the test system is Mus musculus. The assay can be described thus: In vivo LDUs (Leishmania Donovan Units) in liver of mouse at a dose of 50 mg/kg/day.
Assay [35] concerns Mus musculus. The assay can be described thus: In vivo LDUs (Leishmania Donovan Units) in liver of mouse at a dose of 20 mg/kg/day.
The test system of assay [36] is Leishmania donovani. The assay can be described thus: % […] = 100 - 100(LDUs of experimental / LDUs of control).
The subject of assay [37] is Mus musculus. Nature of the assay: In vivo LDUs (Leishmania Donovan Units) in liver of mouse at a dose of 10 mg/kg/day.

Compound `O=C1N=CN=C2C1N=CC2[C@@H]1O[C@H](CO)[C@@H](O)[C@H]1O` (stereo partly specified) yielded a Cured with Mus musculus [1] of 100%. In addition, the Average survival in the assay with Mus musculus [2] is 35 days. The compound further displayed a Range of survival in the assay with Mus musculus [3] of 35.

`N#Cc1ncn(C2O[C@H](COS(N)(=O)=O)[C@@H](O)[C@H]2O)n1` (stereo partly specified): the EC50 with Leishmania donovani [4] was 1 µg/mL (≈ 3.28 µM); in the assay on Giardia intestinalis it was above 25 µg/mL; in assay [5] it was 1 µg/mL (≈ 3.28 µM); in the assay on Trichomonas vaginalis, above 25 µg/mL; with Trypanosoma cruzi, above 50 µg/mL.

As for `NC(=O)c1ncn(C2O[C@H](COS(N)(=O)=O)[C@@H](O)[C@H]2O)n1` (stereo partly specified), the EC50 in the assay on Leishmania donovani [4] is 0.03 µg/mL (≈ 0.0928 µM); in the assay on Giardia intestinalis, 10 µg/mL (≈ 30.9 µM); in [5], 0.01 µg/mL (≈ 0.0309 µM); in the assay on Trichomonas vaginalis it was above 25 µg/mL; with Trypanosoma cruzi, above 50 µg/mL. Besides, the Cured with Trypanosoma brucei [6], in the assay with Trypanosoma brucei [9], with Trypanosoma brucei [13], in the assay with Trypanosoma brucei [15], with Trypanosoma brucei [17] and with Trypanosoma brucei [19] was 0% each time. The Cured in the assay with Trypanosoma brucei [23] and in the assay with Trypanosoma brucei [32] was 0% each time. The Range of survival in the assay on Trypanosoma brucei [7] was found to be 5; in the assay on Trypanosoma brucei [11] it was 4; in the assay with Trypanosoma brucei [12], 4; in the assay on Trypanosoma brucei [18], 4; in the assay on Trypanosoma brucei [20] it was 4; in the assay with Trypanosoma brucei [24], 10. For the same compound, the Range of survival with Trypanosoma brucei [26] and in the assay with Trypanosoma brucei [33] was 4 in each case. In addition, the Activity in the assay listed under Mus musculus [8] is 1244; in the assay filed under Mus musculus [31], 765 and 501. The Suppression in the assay on Leishmania donovani [10] was 18%; with Leishmania donovani [14], 50% and 67%. The Average survival was 11.6 days in the assay on Trypanosoma brucei [16]; 7.4 days with Trypanosoma brucei [21]; 4.8 days in the assay on Trypanosoma brucei [22]; 3.4 days in the assay on Trypanosoma brucei [25]; 4.6 days in the assay on Trypanosoma brucei [27]; 7.4 days with Trypanosoma brucei [28]. The Average survival in the assay on Trypanosoma brucei [29] and in the assay with Trypanosoma brucei [30] was 6.4 days each time.

As to `NC(=S)c1ncn(C2O[C@H](COS(N)(=O)=O)[C@@H](O)[C@H]2O)n1` (stereo partly specified), the EC50 with Leishmania donovani [4] was 2.5 µg/mL (≈ 7.37 µM); with Giardia intestinalis, above 25 µg/mL; in [5], 0.5 µg/mL (≈ 1.47 µM); in the assay with Trichomonas vaginalis, 15 µg/mL (≈ 44.2 µM); in the assay on Trypanosoma cruzi it was above 50 µg/mL. Moreover, the Suppression with Leishmania donovani [14] and with Leishmania donovani [36] was 0% each time. Also, the Activity in the assay with Mus musculus [34] was 1514; with Mus musculus [35] it was 1143; in the assay on Mus musculus [37] it was 1039.
